Measurements reported in patent US10561703B2, “Method of modulating sex hormone levels using a sex hormone secretion modulator” (GEMVAX & KAEL CO., LTD., priority 2013, dated 2020).

Test system: Testosterone
Assay: Testosterone level in blood (serum CLIA) after repeated sc PEP-1
Format: in vivo, SD rats
Procedure: PEP-1 (peptide of SEQ ID NO: 1), lyophilized white powder, obtained according to the method mentioned in example 1 was dissolved in 0.9% of saline, considering the correction factor of PEP-1 (purity: 94.13%, content: 92.36%, correction factor: 1.15). 50 mg/mL stock solution was further diluted into 20 mg/mL, 2 mg/mL, and 1 mg/mL with 0.9% saline, and stored at 4° C. for a week until the use.
The purpose of this example is to confirm the change of sexual hormones in blood from SD rats with 7 days repeated daily administration of SEQ ID NO: 1 peptide, PEP-1. This experiment followed the Ethics Regulation of Animal Test by KAMSI Inc. (Korea Animal Medical Science Institute). In addition, this experiment, Non-GLP experiment, referred to the MFDS (Ministry of Food and Drug Safety) notification; Agent 2013-40 (5th April 2013), Principles of Good Laboratory Practice (1997).
SPF Rats (Crlj:CD(SD)) were purchased from ORIENTBio Inc. (Mokdong-ri, Buk-myeon, Gapyeong-gun, Gyeonggi-do, Republic of Korea). 75 male (6.5 weeks old and 190˜210 g) and 75 female (6.5 weeks old and 160˜180 g) rats were monitored for 4 days, and 64 of male and female rats (each) were selected for the experiment. Raising condition is as follows; 23±3° C. of temperature, […] of relative humidity, 10˜20 times/hr of number of air changes, 12 hours (8 a.m.˜8 p.m.) of lighting with 150˜300 Lux of intensity.
64 male and female […] (mentioned above) were divided into 8 groups. Administration regimen, for example, drugs, routes, dosages, and volumes were as follows:
The detailed administration regimen is as follows; once a day, twice a day and twice a week in each experimental group. Injection initiated at 10 a.m. every day, and each rat was injected at one minute intervals. Rats in Group 9, 10, 13 and 14 were injected twice a week. Administration of high dose test agent preceded that of low dose. The volume of injection was calculated using recently measured weight of rats, and it was 5 mL/kg. Subcutaneous injection was performed as follows; assistant tilted the back of rat upward, and experimenter sterilized the back of rat with 70% alcohol, followed by subcutaneous injection of test agent with 26 G syringe.
1.4 mL of blood sample (0.7 mL of serum) was collected after measurement of weight (Day 0). Next day (1 Day), 1.4 mL of blood sample (0.7 mL of serum) was collected twice after injection of test agent (4 hrs and 8 hrs after administration of test agent). For next 6 days (Day 2˜Day 7), 1.4 mL of blood was extracted once everyday (4 hours after injection of test agent). Dose and volume of test agent of each group followed the Table 3, and injection time zone was same every day. Blood was extracted from the jugular vein, and left at room temperature for 30 minutes. Serum was separated using centrifugation (10,000 rpm for 5 minutes), and stored at −70±5° C. in Deep freezer until the use. Blood extraction from each subject was done in the same time zone every day.
A CLIA (Chemi-Luminescence Immune Assay) Kit was used to analyze Testosterone, Estradiol E2, FSH (Follicle stimulating hormone), and LH (Luteinizing hormone). Analysis was completed within 48 hrs after blood extraction (Laboratory Medicine Department, Chung-Ang University Hospital), and detailed method is as follows; One-way ANOVA was used to verify the comparison between the vehicle and PEP-1, and between different doses of PEP-1. For further analysis, Duncan test was used as parametric test and Dunnett's test as non-parametric test. p<0.05 represents the statistical significance, and all statistical analysis was carried out with SPSS 10.1.
Testosterone was analyzed using the samples prepared from example 2. 15 μL of serum was used for analysis. Fundamentals of analysis is competitive immunoassay based on direct chemi-luminescent. As mentioned in example 2, CLIA (Chemi-luminescence immune assay) Kit was used for Testosterone analysis, following the manufacture's protocol. […]

EARPALLTSRLRFIPK (listed as Homo sapiens) [PEP-1, hormone secretion modulator / GnRH analog]
Testosterone level in blood (G3 Female 5 mg/kg sc 1/day x7, 7 days): 2.91 ng/dL | Testosterone level in blood (G4 Male 5 mg/kg sc 1/day x7, 4 hr): 0.12 ng/dL | Testosterone level in blood (G4 Male 5 mg/kg sc 1/day x7, 8 hr): 0.06 ng/dL | Testosterone level in blood (G4 Male 5 mg/kg sc 1/day x7, 2 days): 0.04 ng/dL | Testosterone level in blood (G4 Male 5 mg/kg sc 1/day x7, 3 days): 0.06 ng/dL | Testosterone level in blood (G4 Male 5 mg/kg sc 1/day x7, 4 days): 0.15 ng/dL | Testosterone level in blood (G4 Male 5 mg/kg sc 1/day x7, 5 days): 0.13 ng/dL | Testosterone level in blood (G4 Male 5 mg/kg sc 1/day x7, 6 days): 0.19 ng/dL | Testosterone level in blood (G4 Male 5 mg/kg sc 1/day x7, 7 days): 0.19 ng/dL | Testosterone level in blood (G4 Male 5 mg/kg sc 1/day x7, pre): 0.2 ng/dL | Testosterone level in blood (G6 Male 10 mg/kg sc 1/day x7, 4 hr): 0.15 ng/dL | Testosterone level in blood (G6 Male 10 mg/kg sc 1/day x7, 8 hr): 0.01 ng/dL | Testosterone level in blood (G6 Male 10 mg/kg sc 1/day x7, 2 days): 0.01 ng/dL | Testosterone level in blood (G6 Male 10 mg/kg sc 1/day x7, 3 days): 0.05 ng/dL | Testosterone level in blood (G6 Male 10 mg/kg sc 1/day x7, 4 days): 0.12 ng/dL | Testosterone level in blood (G6 Male 10 mg/kg sc 1/day x7, 5 days): 0.1 ng/dL | Testosterone level in blood (G6 Male 10 mg/kg sc 1/day x7, 6 days): 0.12 ng/dL | Testosterone level in blood (G6 Male 10 mg/kg sc 1/day x7, 7 days): 0.11 ng/dL | Testosterone level in blood (G6 Male 10 mg/kg sc 1/day x7, pre): 0.13 ng/dL | Testosterone level in blood (G8 Male 10 mg/kg sc 2/day x4, 4 hr): 0.12 ng/dL | Testosterone level in blood (G8 Male 10 mg/kg sc 2/day x4, 8 hr): 0.04 ng/dL | Testosterone level in blood (G8 Male 10 mg/kg sc 2/day x4, 2 days): 0.01 ng/dL | Testosterone level in blood (G8 Male 10 mg/kg sc 2/day x4, 3 days): 0.07 ng/dL | Testosterone level in blood (G8 Male 10 mg/kg sc 2/day x4, 4 days): 0.05 ng/dL | Testosterone level in blood (G8 Male 10 mg/kg sc 2/day x4, 5 days): 0.18 ng/dL | Testosterone level in blood (G8 Male 10 mg/kg sc 2/day x4, 6 days): 0.08 ng/dL | Testosterone level in blood (G8 Male 10 mg/kg sc 2/day x4, 7 days): 0.12 ng/dL | Testosterone level in blood (G8 Male 10 mg/kg sc 2/day x4, pre): 0.17 ng/dL | Testosterone level in blood (G9 Female 10 mg/kg sc 2/week x2 (days 1,7), 4 hr): 7.92 ng/dL | Testosterone level in blood (G9 Female 10 mg/kg sc 2/week x2 (days 1,7), 8 hr): 7.57 ng/dL | Testosterone level in blood (G9 Female 10 mg/kg sc 2/week x2 (days 1,7), 2 days): 0.9 ng/dL | Testosterone level in blood (G9 Female 10 mg/kg sc 2/week x2 (days 1,7), 3 days): 1.05 ng/dL | Testosterone level in blood (G9 Female 10 mg/kg sc 2/week x2 (days 1,7), 4 days): 1.21 ng/dL | Testosterone level in blood (G9 Female 10 mg/kg sc 2/week x2 (days 1,7), 5 days): 1.73 ng/dL | Testosterone level in blood (G9 Female 10 mg/kg sc 2/week x2 (days 1,7), 6 days): 1.67 ng/dL | Testosterone level in blood (G9 Female 10 mg/kg sc 2/week x2 (days 1,7), 7 days): 9.43 ng/dL | Testosterone level in blood (G9 Female 10 mg/kg sc 2/week x2 (days 1,7), pre): 2.3 ng/dL | Testosterone level in blood (G10 Male 10 mg/kg sc 2/week x2 (days 1,7), 4 hr): 0.16 ng/dL | Testosterone level in blood (G10 Male 10 mg/kg sc 2/week x2 (days 1,7), 8 hr): 0.02 ng/dL | Testosterone level in blood (G10 Male 10 mg/kg sc 2/week x2 (days 1,7), 2 days): 0 ng/dL | Testosterone level in blood (G10 Male 10 mg/kg sc 2/week x2 (days 1,7), 3 days): 0.06 ng/dL | Testosterone level in blood (G10 Male 10 mg/kg sc 2/week x2 (days 1,7), 4 days): 0.17 ng/dL | Testosterone level in blood (G10 Male 10 mg/kg sc 2/week x2 (days 1,7), 5 days): 0.08 ng/dL | Testosterone level in blood (G10 Male 10 mg/kg sc 2/week x2 (days 1,7), 6 days): 0.1 ng/dL | Testosterone level in blood (G10 Male 10 mg/kg sc 2/week x2 (days 1,7), 7 days): 0.13 ng/dL | Testosterone level in blood (G10 Male 10 mg/kg sc 2/week x2 (days 1,7), pre): 0.15 ng/dL | Testosterone level in blood (G11 Female 100 mg/kg sc 1/day x7, 4 hr): 7.73 ng/dL | Testosterone level in blood (G11 Female 100 mg/kg sc 1/day x7, 8 hr): 7.41 ng/dL | Testosterone level in blood (G11 Female 100 mg/kg sc 1/day x7, 2 days): 3.92 ng/dL | Testosterone level in blood (G11 Female 100 mg/kg sc 1/day x7, 3 days): 1.55 ng/dL | Testosterone level in blood (G11 Female 100 mg/kg sc 1/day x7, 4 days): 0.63 ng/dL | Testosterone level in blood (G11 Female 100 mg/kg sc 1/day x7, 5 days): 0.55 ng/dL
